Patent publication US20250009889A1, “CYCLIC PEROXIDES AS PRODRUGS FOR SELECTIVE DELIVERY OF AGENTS” (The Regents of the University of California, priority 2021, published 2025)
“Also recorded” adds a separate entry of the source.

Key:
[1] = system: P. falciparum parasites (W2 strain); assay: Growth inhibition of cultured P. falciparum parasites (antiplasmodial activity); format: cell-based; conditions: Plasmodium falciparum, Erythrocyte, in human red blood cells, 48 h incubation, flow cytometry, read-out: IC50 against cultured P. falciparum parasites
Protocol: Plasmodium falciparum EC50 Determinations
The growth inhibition assay for P. falciparum was conducted as described previously with minor modifications. Briefly, P. falciparum strain W2 synchronized ring-stage parasites were cultured in human red blood cells in 96-well flat-bottom culture plates at 37° C., adjusted to 1% parasitemia and 2% hematocrit under an atmosphere of 3% O2, 5% CO2, and […] in a final volume of 0.1 mL per well in RPMI-1640 media supplemented with 0.5% Albumax, 2 mM L-glutamine, and […] in the presence of various concentrations of inhibitors. […] Following 48 h of incubation, the cells were fixed by adding 0.1 mL of 2% formaldehyde in phosphate buffered saline, pH=7.4 (PBS). Parasite growth was evaluated by flow cytometry on a FACsort (Becton Dickinson) equipped with AMS-1 loader (Cytek Development) after staining with 1 nM of the DNA dye YOYO-1 (Molecular Probes) in 100 mM NH4Cl, 0.1% Triton x-100 in 0.8% NaCl. Parasitemias were determined from dot plots (forward scatter vs fluorescence) using CELLQUEST software (Becton Dickinson). EC50 values for growth inhibition were determined from plots of percentage control parasitemia over inhibitor concentration using GraphPad Prism software.

[2] = Fe(II)-fragmentation assay followed by UPLC/MS; format: physicochemical; conditions: ferrous-ammonium sulfate with pH 7.4 Tris buffer; for fragmentation of the trioxolane / conversion to the common cyclohexanone intermediate A on exposure to Fe^2+: UPLC/MS
Protocol: Fe(II)-Fragmentation Assay To 1 mL of trioxolane analog in DMSO (1 mM) at 37° C. was added 1 mL of Tris containing 50 mM ferrous ammonium sulfate. At various time points, 40 μL aliquots of the resulting mixture were removed and spun down in a mini centrifuge for 20 seconds, 20 μL of the supernatant was removed and 5 μL was injected into the UPLC. The concentration of the fragments was determined by UV from UPLC (290 nm). The resulting UV curves were plotted using GraphPad Prism software.

| SMILES | IC50 [1] [nM] | fragmentation of the trioxolane / conversion to the common cyclohexanone intermediate A on exposure to Fe^2+ ([2]; 37° C.) | alternate bicyclo[2.2.1]heptan-2-one product detected (regioselectivity of peroxide scission) [2] | rate of conversion to intermediate A relative to comparator 6a [2] | time point by which the conjugate is fully consumed ([2]; 37° C.) [min] |
| --- | --- | --- | --- | --- | --- |
| O=C(O[C@@H]1CCC[C@]2(C1)OOC1(O2)C2CC3CC(C2)CC1C3)N1CCCCC1C(O)c1cc(C(F)(F)F)nc2c(C(F)(F)F)cccc12 (stereo partly drawn) [6a, reference compound] | 17 | rapid; also recorded: within minutes to clean conversion |  |  |  |
| O=C(O[C@@H]1CCC[C@]2(C1)OOC1(CC3CCC1C3)O2)N1CCCCC1C(O)c1cc(C(F)(F)F)nc2c(C(F)(F)F)cccc12 (stereo partly drawn) [6f] | 74 | rapid; also recorded: within minutes to clean conversion | No detectable quantity | moderately faster | ≤ 11 |
| O=C(O[C@@H]1CCC[C@]2(C1)OOC1(O2)C2CCCC1CCC2)N1CCCCC1C(O)c1cc(C(F)(F)F)nc2c(C(F)(F)F)cccc12 (stereo partly drawn) [6h] | 24 |  |  |  |  |
| O=C(O[C@@H]1CCC[C@]2(C1)OOC1(CC3CCC1CC3)O2)N1CCCCC1C(O)c1cc(C(F)(F)F)nc2c(C(F)(F)F)cccc12 (stereo partly drawn) [6g] | 24 |  |  |  |  |
